The results in this text go back to patent publication US20250197359A1, “CANNABINOID RECEPTOR MODULATING COMPOUNDS” (The U.S.A., as Represented by the Secretary, Department of …, priority 2022, published 2025).

A word on the IC50: it is the concentration that inhibits the measured activity by half. Higher therefore signals a need for much substance. For orientation: Ki means a measure of affinity in units of concentration, obtained from inhibition or displacement.

Where “and” joins values, the source holds several entries; their conditions need not be identical. Equal values may be shown once.

One assay addresses T1, Brain/CB1 (Mus musculus, UniProt P47746).
T1 construct: from tissue; host or cells: mouse brain membranes
The assay is described as follows: Functional GTPγS binding, Brain/CB1. Type of assay: biochemical. From the text: Furthermore, the intermediates urea compounds 8a-m were chlorinated with phosphorus oxychloride in the presence of DIPEA base to form imidoyl chloride intermediate and reacted with acetamidine hydrochloride/methyl carbamimidothioate iodide/methyl carbamimidoselenoate iodide and other amines to furnish the target compounds (10a-34b) (Scheme 2, FIG. 2, Scheme 5, FIG. 5). The urea derivatives were converted to the thiourea derivatives 9a-9d by employing sodium thiosulfate. Compound 8a-b, 8e-f were converted to corresponding thiourea by employing sodium thiosulfate dissolved in water dioxane mixture and the reaction was heated to 85° C. for 2 h. […] The binding constant for the synthesized compounds were determined by using radioligand binding assay in mouse brain membranes as well as the target compounds were evaluated in vitro at the human CB1 receptor, stably expressed into Chinese hamster ovary (CHO) cells as well as mouse brain membrane CB1.
(GTPγS is a poorly hydrolysed GTP analogue; its binding reports G protein activation.)

Another assay concerns the target CB1 (UniProt P21554). The assay is described as follows: CB1 radioligand binding assay. More on the design: species or system human. The note with it: read-out: Ki (CB1). As to the method: The target compounds were evaluated in vitro at the human CB1 receptor, stably expressed into Chinese hamster ovary (CHO) cells by utilizing radioligand binding studies.
The binding constant for the synthesized compounds were determined by using radioligand binding assay in mouse brain membranes as well as the target compounds were evaluated in vitro at the human CB1 receptor, stably expressed into Chinese hamster ovary (CHO) cells as well as mouse brain membrane CB1. […]

T1 sequence (P47746 whole entry): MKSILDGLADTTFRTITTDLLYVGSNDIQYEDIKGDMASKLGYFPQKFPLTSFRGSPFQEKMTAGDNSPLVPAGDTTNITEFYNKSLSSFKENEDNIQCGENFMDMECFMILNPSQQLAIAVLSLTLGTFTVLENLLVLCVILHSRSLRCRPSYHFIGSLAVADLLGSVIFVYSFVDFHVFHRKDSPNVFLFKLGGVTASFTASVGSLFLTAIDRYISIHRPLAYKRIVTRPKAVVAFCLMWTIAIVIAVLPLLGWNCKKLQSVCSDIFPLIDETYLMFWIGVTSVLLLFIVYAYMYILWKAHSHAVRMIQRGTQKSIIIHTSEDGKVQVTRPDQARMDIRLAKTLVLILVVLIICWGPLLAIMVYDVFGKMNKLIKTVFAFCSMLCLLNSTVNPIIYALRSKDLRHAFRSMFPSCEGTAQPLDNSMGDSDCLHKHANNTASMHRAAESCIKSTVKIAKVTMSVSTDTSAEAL

On to `CCC(N/C(=N/S(=O)(=O)c1ccc(C(F)(F)F)cc1)N1CCC(c2ccccc2)C(c2ccc(Cl)cc2)=N1)C(N)=O` (single isomer, unassigned) [Compound 32b, (Z)-2-(3-(4-chlorophenyl)-4-phenyl-N′-((4-(trifluoromethyl)phenyl)sulfonyl)-1,4,5,6-tetrahydropyridazine-1-carboximidamido) butanamide], for which the IC50 at Brain/CB1 came to 174 nM. Further, the Ki at CB1 is 77.4 nM.
On Brain/CB1, `COC(=O)C(N/C(=N/S(=O)(=O)c1ccc(C(F)(F)F)cc1)N1CCC(c2ccccc2)C(c2ccc(Cl)cc2)=N1)C(C)C` (single isomer, unassigned) [Compound 34b] returned an IC50 of 17 nM. The Ki on CB1 is 2.71 nM.
As for `C/C(N)=N\C(=N\S(=O)(=O)c1ccccc1)N1CCC(c2ccccc2)C(c2ccc(Cl)cc2)=N1` (stereo not drawn) [Compound 10g, (Z)—N—((E)-1-aminoethylidene)-3-(4-chlorophenyl)-4-phenyl-N′-(phenylsulfonyl)-5,6-dihydropyridazine-1 (4H)-carboximidamide], the IC50 on Brain/CB1 amounted to 357 nM. Also, the Ki at CB1 was 128 nM and 212 nM.
`N/C(=N\C(=N\S(=O)(=O)c1ccc(C(F)(F)F)cc1)N1CCC(c2ccccc2)C(c2ccc(Cl)cc2)=N1)c1cccs1` (stereo not drawn) [Compound 10w, (Z)—N—((Z)-amino (thiophen-2-yl)methylene)-3-(4-chlorophenyl)-4-phenyl-N′-((4-(trifluoromethyl)phenyl)sulfonyl)-5,6-dihydropyridazine-1 (4H)-carboximidamide] had an IC50 at Brain/CB1 of 234 nM. In addition, the Ki at CB1 was 140 nM.
In turn, `C/C(N)=N\C(=N\S(=O)(=O)c1ccc(I)cc1)N1CCC(c2ccccc2)C(c2ccc(Cl)cc2)=N1` (stereo not drawn) [Compound 10i, (Z)—N—((E)-1-aminoethylidene)-3-(4-chlorophenyl)-N′-((4-iodophenyl)sulfonyl)-4-phenyl-5,6-dihydropyridazine-1 (4H)-carboximidamide] gave an IC50 at Brain/CB1 of 118 nM. At CB1, the Ki was 43 nM.
Consider `N/C(=N\C(=N\S(=O)(=O)c1ccc(C(F)(F)F)cc1)N1CCC(c2ccccc2)C(c2ccc(Br)cc2)=N1)c1ccc(F)cc1F` (stereo not drawn) [Compound 10za, (Z)—N—((Z)-amino (2,4-difluorophenyl)methylene)-3-(4-bromophenyl)-4-phenyl-N′-((4-(trifluoromethyl)phenyl)sulfonyl)-5,6-dihydropyridazine-1 (4H)-carboximidamide], for which, at Brain/CB1, the IC50 is 26 nM. In addition, the Ki on CB1 was 9.18 nM.
Taken in the same sequence, the figures for `NC(=O)CN/C(=N/S(=O)(=O)c1ccc(Cl)cc1)N1CCC(c2ccccc2)C(c2ccc(Cl)cc2)=N1` (stereo not drawn) [Compound 25, (Z)-2-(3-(4-chlorophenyl)-N′-((4-chlorophenyl)sulfonyl)-4-phenyl-1,4,5,6-tetrahydropyridazine-1-carboximidamido)acetamide] were 207 nM and 41.1 nM.
In the case of `CC(C)(C)/C(N)=N/C(=N/S(=O)(=O)c1ccc(C(F)(F)F)cc1)N1CCC(c2ccccc2)C(c2ccc(Br)cc2)=N1` (stereo not drawn) [Compound 10x, (Z)—N—((Z)-1-amino-2,2-dimethylpropylidene)-3-(4-bromophenyl)-4-phenyl-N′-((4-(trifluoromethyl)phenyl)sulfonyl)-5,6-dihydropyridazine-1 (4H)-carboximidamide], the half-inhibitory concentration (IC50) on Brain/CB1 was determined as 35 nM. Besides, on CB1, the Ki came out at 20.3 nM.
The matching figures for `CC(C)C(N/C(=N/S(=O)(=O)c1ccc(Cl)cc1)N1CCC(c2ccccc2)C(c2ccc(Cl)cc2)=N1)C(N)=O` (single isomer, unassigned) [Compound 30a, (Z)-2-(3-(4-chlorophenyl)-N′-((4-chlorophenyl)sulfonyl)-4-phenyl-1,4,5,6-tetrahydropyridazine-1-carboximidamido)-3-methylbutanamide]: over 1000 nM and 907 nM.
Taken in the same sequence, the figures for `C/C(N)=N\C(=N\S(=O)(=O)c1ccc(C)cc1)N1CCC(c2ccccc2)C(c2ccc(Cl)cc2)=N1` (stereo not drawn) [Compound 101, (Z)—N—((E)-1-aminoethylidene)-3-(4-chlorophenyl)-4-phenyl-N′-tosyl-5,6-dihydropyridazine-1 (4H)-carboximidamide] were over 1000 nM and 84 nM.
Regarding `N#Cc1ccc(S(=O)(=O)/N=C(/N=C2\CCCCN2)N2CCC(c3ccccc3)C(c3ccc(Cl)cc3)=N2)cc1` (stereo not drawn) [Compound 13b, (Z)-3-(4-chlorophenyl)-N′-((4-cyanophenyl)sulfonyl)-4-phenyl-N—((E)-piperidin-2-ylidene)-5,6-dihydropyridazine-1 (4H)-carboximidamide], on Brain/CB1, the IC50 was 325 nM. On CB1, the Ki turned out to be 19.8 nM.
With `CS/C(N)=N/C(=N/S(=O)(=O)c1ccc(C(F)(F)F)cc1)N1CCC(c2ccccc2)C(c2ccc(F)cc2)=N1` (stereo not drawn) [Compound 11j, methyl (E)-N′—((Z)-(3-(4-fluorophenyl)-4-phenyl-5,6-dihydropyridazin-1 (4H)-yl)(((4-(trifluoromethyl)phenyl)sulfonyl)imino)methyl)carbamimidothioate], the IC50 at Brain/CB1 is over 1000 nM. In addition, at CB1, the Ki came out at 93 nM.
The matching figures for `CC(C)(C)/C(N)=N/C(=N/S(=O)(=O)c1ccc(C(F)(F)F)cc1)N1CCC(c2ccccc2)C(c2ccc(Cl)cc2)=N1` (single isomer, unassigned) [Compound 10oE2, (Z)—N—((Z)-1-amino-2,2-dimethylpropylidene)-3-(4-chlorophenyl)-4-phenyl-N′-((4-(trifluoromethyl)phenyl)sulfonyl)-5,6-dihydropyridazine-1 (4H)-carboximidamide]: 11 nM and 7.3 nM.
With `N/C(=N\C(=N\S(=O)(=O)c1ccc(C(F)(F)F)cc1)N1CCC(c2ccccc2)C(c2ccc(F)cc2)=N1)c1ccc(F)cc1F` (stereo not drawn) [Compound 10ze, (Z)—N—((Z)-amino (2,4-difluorophenyl)methylene)-3-(4-fluorophenyl)-4-phenyl-N′-((4-(trifluoromethyl)phenyl)sulfonyl)-5,6-dihydropyridazine-1 (4H)-carboximidamide], the 50% inhibitory concentration (IC50) at Brain/CB1 was 450 nM. Moreover, the Ki on CB1 was 58.6 nM.
Regarding `C/C(N)=N\C(=N\S(=O)(=O)c1ccccc1C(F)(F)F)N1CCC(c2ccccc2)C(c2ccc(Cl)cc2)=N1` (stereo not drawn) [Compound 10k, (Z)—N—((E)-1-aminoethylidene)-3-(4-chlorophenyl)-4-phenyl-N′-((2-(trifluoromethyl)phenyl)sulfonyl)-5,6-dihydropyridazine-1 (4H)-carboximidamide], the IC50 at Brain/CB1 amounted to 125 nM. Further, the Ki at CB1 is 50.6 nM.
`O=S(=O)(/N=C(/N=C1\CCCCN1)N1CCC(c2ccccc2)C(c2ccc(Cl)cc2)=N1)c1ccc2ccccc2c1` (stereo not drawn) [Compound 15, (Z)-3-(4-chlorophenyl)-N′-(naphthalen-2-ylsulfonyl)-4-phenyl-N—((E)-piperidin-2-ylidene)-5,6-dihydropyridazine-1 (4H)-carboximidamide]: the IC50 on Brain/CB1 was determined as 287 nM. For the same compound, the Ki on CB1 turned out to be 34.1 nM.
The matching figures for `C/C(N)=N/C(=N/S(=O)(=O)c1ccc(C(F)(F)F)cc1)N1CCC(c2ccccc2)C(c2ccc(Br)cc2)=N1` (stereo not drawn) [Compound 10y, (Z)—N—((Z)-1-aminoethylidene)-3-(4-bromophenyl)-4-phenyl-N′-((4-(trifluoromethyl)phenyl)sulfonyl)-5,6-dihydropyridazine-1 (4H)-carboximidamide]: 92 nM and 57.2 nM.
The matching figures for `N/C(=N\C(=N\S(=O)(=O)c1ccc(C(F)(F)F)cc1)N1CCC(c2ccccc2)C(c2ccc(Cl)cc2)=N1)c1ccccn1` (single isomer, unassigned) [Compound 10vE1, (Z)—N—((Z)-amino (pyridin-2-yl)methylene)-3-(4-chlorophenyl)-4-phenyl-N′-((4-(trifluoromethyl)phenyl)sulfonyl)-5,6-dihydropyridazine-1 (4H)-carboximidamide]: 107 nM and 11.5 nM.
On to `CC(N/C(=N/S(=O)(=O)c1ccc(C(F)(F)F)cc1)N1CCC(c2ccccc2)C(c2ccc(Cl)cc2)=N1)C(N)=O` (single isomer, unassigned) [Compound 31b, (Z)-2-(3-(4-chlorophenyl)-4-phenyl-N′-((4-(trifluoromethyl)phenyl)sulfonyl)-1,4,5,6-tetrahydropyridazine-1-carboximidamido) propenamide], for which the IC50 on Brain/CB1 is 33 nM. The inhibition constant Ki at CB1 is 8.05 nM.
The compound `COC(=O)C(N/C(=N/S(=O)(=O)c1ccc(C(F)(F)F)cc1)N1CCC(c2ccccc2)C(c2ccc(Cl)cc2)=N1)C(C)C` (single isomer, unassigned) [Compound 34a] returned an IC50 on Brain/CB1 of 41 nM. On CB1, the Ki was determined as 46.4 nM.
The matching figures for `N/C(=N\C(=N\S(=O)(=O)c1ccc(C(F)(F)F)cc1)N1CCC(c2ccccc2)C(c2ccc(Cl)cc2)=N1)c1ccccn1` (single isomer, unassigned) [Compound 10vE2, (Z)—N—((Z)-amino (pyridin-2-yl)methylene)-3-(4-chlorophenyl)-4-phenyl-N′-((4-(trifluoromethyl)phenyl)sulfonyl)-5,6-dihydropyridazine-1 (4H)-carboximidamide]: 24 nM and 5 nM.
